The nature of this experiment: Inhibition of GP2b/3a in human platelet-rich plasma assessed as reduction in collagen-induced platelet aggregation preincubated for 1 min followed by collagen addition by aggregometric analysis.

The IC50 is the concentration that inhibits the measured activity by half.

Take `CCOC(=O)CC1CCN(C(=O)CC(CC)NC(=O)c2ccc(C(=N)N3CCSC3)cc2F)CC1` (stereo not drawn): the IC50 turned out to be 50 nM.

In the case of `CCOC(=O)CC1CCN(C(=O)C(C)(C)[C@@H](CC)NC(=O)c2ccc(C(=N)N3CCSC3)cc2F)CC1` [(1-{3-[2-Fluoro-4-(imino-thiazolidin-3-yl-methyl)-benzoylamino]-2,2-dimethyl-pentanoyl}-piperidin-4-yl)-acetic acid ethyl ester(NSL-96184)], the IC50 was 22 nM.

`CCOC(=O)CC1CCN(C(=O)C(C)(C)[C@H](CC)NC(=O)c2ccc(C(=N)N3CCSC3)cc2F)CC1`: the IC50 was found to be 3100 nM.

For the origin of these results see BindingDB's records for doi:10.1021/acs.jmedchem.7b00315 (St. John'S University, 2018).
